# Results as given in ChEMBL document CHEMBL1909046, “DrugMatrix in vitro pharmacology data”.
# Molecular target: T1, Alpha-1A adrenergic receptor (Rattus norvegicus, UniProt P43140)
# T1 sequence (P43140 whole entry): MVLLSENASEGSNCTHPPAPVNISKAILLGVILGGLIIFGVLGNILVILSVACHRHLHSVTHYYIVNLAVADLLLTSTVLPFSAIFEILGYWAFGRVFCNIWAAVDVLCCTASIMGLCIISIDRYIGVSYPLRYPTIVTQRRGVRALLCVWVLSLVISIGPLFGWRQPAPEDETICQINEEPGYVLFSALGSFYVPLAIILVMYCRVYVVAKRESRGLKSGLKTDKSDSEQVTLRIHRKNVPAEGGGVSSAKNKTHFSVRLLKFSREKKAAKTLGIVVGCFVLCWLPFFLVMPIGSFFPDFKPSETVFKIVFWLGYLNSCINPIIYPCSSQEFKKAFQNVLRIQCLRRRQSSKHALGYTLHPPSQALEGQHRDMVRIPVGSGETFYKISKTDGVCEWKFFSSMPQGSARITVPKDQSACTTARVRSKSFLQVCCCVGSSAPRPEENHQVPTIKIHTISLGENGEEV
# Test: DRUGMATRIX: Alpha-1A adrenergic receptor radioligand binding (ligand: prazosin)
# Type: cell membranes, Wistar, Submaxillary gland, Membrane
# Details: Not Active = under 50% inhibition at 10 µM
row,SMILES,IC50
1,CCC1(c2ccccc2)C(=O)NCNC1=O [PRIMIDONE],Not Active
2,CC=CC(=O)N(CC)c1ccccc1C,Not Active
3,O=C1NC(=O)C(c2ccccc2)(c2ccccc2)N1 [PHENYTOIN],Not Active
4,COc1ccc2c(c1)c(CC(=O)OCC(=O)O)c(C)n2C(=O)c1ccc(Cl)cc1 [ACEMETACIN],Not Active

# Same assay, conditions: Not Active = under 50% inhibition at 10 µM; read-out: IC50
row,SMILES,IC50
1,CN1C[C@H](C(=O)N[C@]2(C)O[C@@]3(O)[C@@H]4CCCN4C(=O)[C@H](Cc4ccccc4)N3C2=O)C=C2c3cccc4[nH]cc(c34)C[C@H]21 [ERGOTAMINE],8.06 nM

# Same assay, conditions: Not Active = under 50% inhibition at 10 µM; read-out: Ki
row,SMILES,Ki
1,CN1C[C@H](C(=O)N[C@]2(C)O[C@@]3(O)[C@@H]4CCCN4C(=O)[C@H](Cc4ccccc4)N3C2=O)C=C2c3cccc4[nH]cc(c34)C[C@H]21 [ERGOTAMINE],3.26 nM

# Molecular target: T2, B2 bradykinin receptor (Homo sapiens, UniProt P30411); also: in other assays of this panel Not Active means under 50% inhibition at 10 µM
# T2 sequence (P30411 whole entry): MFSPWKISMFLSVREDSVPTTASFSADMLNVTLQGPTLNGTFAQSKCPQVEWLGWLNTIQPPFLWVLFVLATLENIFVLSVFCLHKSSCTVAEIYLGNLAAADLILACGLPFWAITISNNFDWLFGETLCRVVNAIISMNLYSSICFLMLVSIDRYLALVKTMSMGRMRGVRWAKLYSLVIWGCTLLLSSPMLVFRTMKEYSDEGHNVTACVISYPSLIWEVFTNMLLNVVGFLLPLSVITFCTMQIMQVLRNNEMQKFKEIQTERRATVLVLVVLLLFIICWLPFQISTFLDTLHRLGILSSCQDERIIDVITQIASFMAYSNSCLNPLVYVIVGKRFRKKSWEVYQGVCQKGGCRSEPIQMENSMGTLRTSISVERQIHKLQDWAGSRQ
# Type: cell membranes, Membrane
# Details: chem-1
row,SMILES,IC50
1,CN1C[C@H](C(=O)N[C@]2(C)O[C@@]3(O)[C@@H]4CCCN4C(=O)[C@H](Cc4ccccc4)N3C2=O)C=C2c3cccc4[nH]cc(c34)C[C@H]21 [ERGOTAMINE],Not Active
2,CCC1(c2ccccc2)C(=O)NCNC1=O [PRIMIDONE],Not Active
3,CC=CC(=O)N(CC)c1ccccc1C,Not Active
4,O=C1NC(=O)C(c2ccccc2)(c2ccccc2)N1 [PHENYTOIN],Not Active
5,COc1ccc2c(c1)c(CC(=O)OCC(=O)O)c(C)n2C(=O)c1ccc(Cl)cc1 [ACEMETACIN],Not Active

# System: not listed separately
# Test: DRUGMATRIX: Serotonin (5-Hydroxytryptamine) 5-HT3 radioligand binding (ligand: [3H] GR-65630)
# Type: cell membranes, Membrane
# Details: hek293; Not Active = under 50% inhibition at 10 µM
SMILES,IC50,Ki
CN1C[C@H](C(=O)N[C@]2(C)O[C@@]3(O)[C@@H]4CCCN4C(=O)[C@H](Cc4ccccc4)N3C2=O)C=C2c3cccc4[nH]cc(c34)C[C@H]21 [ERGOTAMINE],Not Active,Not Active
CCC1(c2ccccc2)C(=O)NCNC1=O [PRIMIDONE],Not Active,Not Active
CC=CC(=O)N(CC)c1ccccc1C,Not Active,Not Active
O=C1NC(=O)C(c2ccccc2)(c2ccccc2)N1 [PHENYTOIN],Not Active,Not Active
COc1ccc2c(c1)c(CC(=O)OCC(=O)O)c(C)n2C(=O)c1ccc(Cl)cc1 [ACEMETACIN],Not Active,Not Active

# Molecular target: Sigma non-opioid intracellular receptor 1 (Homo sapiens, UniProt Q99720)
# Sequence (Q99720 whole entry): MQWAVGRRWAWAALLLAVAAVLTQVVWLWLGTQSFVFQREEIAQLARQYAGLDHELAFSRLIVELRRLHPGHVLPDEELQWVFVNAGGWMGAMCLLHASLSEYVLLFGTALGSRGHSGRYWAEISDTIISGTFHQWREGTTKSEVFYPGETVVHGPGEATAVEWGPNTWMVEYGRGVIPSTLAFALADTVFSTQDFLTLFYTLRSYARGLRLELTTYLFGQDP
# Test: DRUGMATRIX: Sigma1 radioligand binding (ligand: [3H] Haloperidol)
# Type: cell membranes, Jurkat, Membrane
# Details: jurkat; Not Active = under 50% inhibition at 10 µM
row,SMILES,IC50
1,CN1C[C@H](C(=O)N[C@]2(C)O[C@@]3(O)[C@@H]4CCCN4C(=O)[C@H](Cc4ccccc4)N3C2=O)C=C2c3cccc4[nH]cc(c34)C[C@H]21 [ERGOTAMINE],Not Active
2,CCC1(c2ccccc2)C(=O)NCNC1=O [PRIMIDONE],Not Active
3,CC=CC(=O)N(CC)c1ccccc1C,Not Active
4,O=C1NC(=O)C(c2ccccc2)(c2ccccc2)N1 [PHENYTOIN],Not Active
5,COc1ccc2c(c1)c(CC(=O)OCC(=O)O)c(C)n2C(=O)c1ccc(Cl)cc1 [ACEMETACIN],Not Active

# Molecular target: Vascular endothelial growth factor receptor 1 (Homo sapiens, UniProt P17948); also: in other assays of this panel Not Active means under 50% inhibition at 10 µM
# Sequence (P17948 whole entry): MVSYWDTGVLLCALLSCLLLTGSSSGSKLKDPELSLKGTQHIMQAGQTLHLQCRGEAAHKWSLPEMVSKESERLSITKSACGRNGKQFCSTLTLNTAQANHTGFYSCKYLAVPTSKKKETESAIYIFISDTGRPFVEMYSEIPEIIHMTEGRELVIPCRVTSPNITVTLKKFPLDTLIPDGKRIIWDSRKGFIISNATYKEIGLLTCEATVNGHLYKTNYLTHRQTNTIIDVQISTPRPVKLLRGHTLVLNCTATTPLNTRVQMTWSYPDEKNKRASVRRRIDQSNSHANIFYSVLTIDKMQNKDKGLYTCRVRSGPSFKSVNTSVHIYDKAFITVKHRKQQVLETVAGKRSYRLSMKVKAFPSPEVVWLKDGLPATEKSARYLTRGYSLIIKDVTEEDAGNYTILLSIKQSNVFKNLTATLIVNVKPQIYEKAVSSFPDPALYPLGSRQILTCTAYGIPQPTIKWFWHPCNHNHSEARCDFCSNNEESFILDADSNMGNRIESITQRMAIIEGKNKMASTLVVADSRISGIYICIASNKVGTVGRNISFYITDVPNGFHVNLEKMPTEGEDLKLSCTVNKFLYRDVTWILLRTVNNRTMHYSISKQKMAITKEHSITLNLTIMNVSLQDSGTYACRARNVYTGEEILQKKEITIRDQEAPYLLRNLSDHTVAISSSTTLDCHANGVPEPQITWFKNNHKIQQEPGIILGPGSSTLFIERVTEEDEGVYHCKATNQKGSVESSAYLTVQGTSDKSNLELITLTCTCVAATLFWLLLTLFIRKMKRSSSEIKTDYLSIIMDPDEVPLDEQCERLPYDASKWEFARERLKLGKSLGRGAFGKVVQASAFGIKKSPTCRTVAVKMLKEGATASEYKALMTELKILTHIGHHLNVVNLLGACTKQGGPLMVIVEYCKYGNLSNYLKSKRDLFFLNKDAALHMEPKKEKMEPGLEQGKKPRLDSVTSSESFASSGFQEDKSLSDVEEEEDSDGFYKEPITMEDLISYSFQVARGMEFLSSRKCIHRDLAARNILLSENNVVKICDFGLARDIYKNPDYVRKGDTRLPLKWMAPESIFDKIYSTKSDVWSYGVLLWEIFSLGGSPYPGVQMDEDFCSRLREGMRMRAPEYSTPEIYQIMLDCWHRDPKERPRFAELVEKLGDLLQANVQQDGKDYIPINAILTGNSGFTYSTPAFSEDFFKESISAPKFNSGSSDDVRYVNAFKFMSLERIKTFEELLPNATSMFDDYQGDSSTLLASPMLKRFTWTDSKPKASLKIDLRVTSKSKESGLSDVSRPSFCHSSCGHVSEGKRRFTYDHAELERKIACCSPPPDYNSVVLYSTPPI
# Type: cell-based
# Details: huvec
row,SMILES,IC50
1,CN1C[C@H](C(=O)N[C@]2(C)O[C@@]3(O)[C@@H]4CCCN4C(=O)[C@H](Cc4ccccc4)N3C2=O)C=C2c3cccc4[nH]cc(c34)C[C@H]21 [ERGOTAMINE],Not Active
2,CCC1(c2ccccc2)C(=O)NCNC1=O [PRIMIDONE],Not Active
3,CC=CC(=O)N(CC)c1ccccc1C,Not Active
4,O=C1NC(=O)C(c2ccccc2)(c2ccccc2)N1 [PHENYTOIN],Not Active
5,COc1ccc2c(c1)c(CC(=O)OCC(=O)O)c(C)n2C(=O)c1ccc(Cl)cc1 [ACEMETACIN],Not Active

# Molecular target: T3, Muscarinic acetylcholine receptor M4 (Homo sapiens, UniProt P08173); also: in other assays of this panel Not Active means under 50% inhibition at 10 µM
# T3 sequence (P08173 whole entry): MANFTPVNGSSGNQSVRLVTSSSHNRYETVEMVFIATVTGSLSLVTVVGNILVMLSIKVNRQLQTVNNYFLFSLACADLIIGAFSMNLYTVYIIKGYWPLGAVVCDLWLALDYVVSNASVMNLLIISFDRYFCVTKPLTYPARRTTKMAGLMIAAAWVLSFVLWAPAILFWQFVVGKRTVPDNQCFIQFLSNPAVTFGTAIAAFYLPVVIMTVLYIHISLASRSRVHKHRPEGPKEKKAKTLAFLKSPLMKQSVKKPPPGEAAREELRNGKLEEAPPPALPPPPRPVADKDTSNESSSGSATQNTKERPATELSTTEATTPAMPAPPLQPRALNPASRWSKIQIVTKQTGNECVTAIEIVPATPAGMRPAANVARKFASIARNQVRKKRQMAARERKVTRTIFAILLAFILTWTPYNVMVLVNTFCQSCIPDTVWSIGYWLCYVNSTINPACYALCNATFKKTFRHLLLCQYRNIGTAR
# Type: cell membranes, CHO-K1, Membrane
# Details: cho-k1
row,SMILES,IC50
1,CN1C[C@H](C(=O)N[C@]2(C)O[C@@]3(O)[C@@H]4CCCN4C(=O)[C@H](Cc4ccccc4)N3C2=O)C=C2c3cccc4[nH]cc(c34)C[C@H]21 [ERGOTAMINE],Not Active
2,CCC1(c2ccccc2)C(=O)NCNC1=O [PRIMIDONE],Not Active
3,CC=CC(=O)N(CC)c1ccccc1C,Not Active
4,O=C1NC(=O)C(c2ccccc2)(c2ccccc2)N1 [PHENYTOIN],Not Active
5,COc1ccc2c(c1)c(CC(=O)OCC(=O)O)c(C)n2C(=O)c1ccc(Cl)cc1 [ACEMETACIN],Not Active

# Molecular target: Nitric oxide synthase 1 (Rattus norvegicus, UniProt P29476); also: in other assays of this panel Not Active means under 50% inhibition at 10 µM
# Type: tissue-based, Cerebellum
# Details: not given
row,SMILES,IC50
1,CN1C[C@H](C(=O)N[C@]2(C)O[C@@]3(O)[C@@H]4CCCN4C(=O)[C@H](Cc4ccccc4)N3C2=O)C=C2c3cccc4[nH]cc(c34)C[C@H]21 [ERGOTAMINE],Not Active
2,CCC1(c2ccccc2)C(=O)NCNC1=O [PRIMIDONE],Not Active
3,CC=CC(=O)N(CC)c1ccccc1C,Not Active
4,O=C1NC(=O)C(c2ccccc2)(c2ccccc2)N1 [PHENYTOIN],Not Active
5,COc1ccc2c(c1)c(CC(=O)OCC(=O)O)c(C)n2C(=O)c1ccc(Cl)cc1 [ACEMETACIN],Not Active

# Molecular target: Delta-type opioid receptor (Homo sapiens, UniProt P41143); also: in other assays of this panel Not Active means under 50% inhibition at 10 µM
# Sequence (P41143 whole entry): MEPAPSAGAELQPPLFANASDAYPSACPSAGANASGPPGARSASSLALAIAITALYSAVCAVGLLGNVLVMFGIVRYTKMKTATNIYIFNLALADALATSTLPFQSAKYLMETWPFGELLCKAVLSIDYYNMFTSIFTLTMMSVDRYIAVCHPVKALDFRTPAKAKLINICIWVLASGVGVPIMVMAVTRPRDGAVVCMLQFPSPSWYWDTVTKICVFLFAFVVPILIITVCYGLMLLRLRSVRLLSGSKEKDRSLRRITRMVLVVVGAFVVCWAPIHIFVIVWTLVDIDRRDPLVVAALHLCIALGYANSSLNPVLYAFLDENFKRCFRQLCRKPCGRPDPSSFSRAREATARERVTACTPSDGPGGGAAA
# Type: cell membranes, HEK293, Membrane
# Details: hek293
row,SMILES,IC50
1,CN1C[C@H](C(=O)N[C@]2(C)O[C@@]3(O)[C@@H]4CCCN4C(=O)[C@H](Cc4ccccc4)N3C2=O)C=C2c3cccc4[nH]cc(c34)C[C@H]21 [ERGOTAMINE],Not Active
2,CCC1(c2ccccc2)C(=O)NCNC1=O [PRIMIDONE],Not Active
3,CC=CC(=O)N(CC)c1ccccc1C,Not Active
4,O=C1NC(=O)C(c2ccccc2)(c2ccccc2)N1 [PHENYTOIN],Not Active
5,COc1ccc2c(c1)c(CC(=O)OCC(=O)O)c(C)n2C(=O)c1ccc(Cl)cc1 [ACEMETACIN],Not Active

# Molecular target: T4, Progesterone receptor (Bos taurus, UniProt Q690N0)
# T4 sequence (Q690N0 whole entry): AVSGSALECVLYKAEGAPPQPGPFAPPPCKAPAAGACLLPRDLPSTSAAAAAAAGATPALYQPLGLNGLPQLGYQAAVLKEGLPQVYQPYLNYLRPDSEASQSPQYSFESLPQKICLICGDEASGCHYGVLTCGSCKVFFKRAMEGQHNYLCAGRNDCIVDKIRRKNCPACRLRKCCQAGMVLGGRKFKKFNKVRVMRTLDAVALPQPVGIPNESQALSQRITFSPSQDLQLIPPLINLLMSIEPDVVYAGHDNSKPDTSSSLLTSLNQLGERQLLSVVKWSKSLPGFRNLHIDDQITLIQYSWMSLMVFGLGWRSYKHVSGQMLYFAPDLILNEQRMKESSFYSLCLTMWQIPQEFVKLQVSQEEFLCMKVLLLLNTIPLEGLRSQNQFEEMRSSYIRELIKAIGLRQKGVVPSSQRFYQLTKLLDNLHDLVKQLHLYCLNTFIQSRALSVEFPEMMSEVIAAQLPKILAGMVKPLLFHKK
# Test: DRUGMATRIX: Progesterone radioligand binding (ligand: [3H] R-5020)
# Type: tissue-based, Uterus
# Details: Not Active = under 50% inhibition at 10 µM
row,SMILES,IC50
1,CN1C[C@H](C(=O)N[C@]2(C)O[C@@]3(O)[C@@H]4CCCN4C(=O)[C@H](Cc4ccccc4)N3C2=O)C=C2c3cccc4[nH]cc(c34)C[C@H]21 [ERGOTAMINE],Not Active
2,CCC1(c2ccccc2)C(=O)NCNC1=O [PRIMIDONE],Not Active
3,CC=CC(=O)N(CC)c1ccccc1C,Not Active
4,O=C1NC(=O)C(c2ccccc2)(c2ccccc2)N1 [PHENYTOIN],Not Active
5,COc1ccc2c(c1)c(CC(=O)OCC(=O)O)c(C)n2C(=O)c1ccc(Cl)cc1 [ACEMETACIN],Not Active

# Molecular target: Matrix metalloproteinase-9 (Homo sapiens, UniProt P14780)
# Sequence (P14780 whole entry): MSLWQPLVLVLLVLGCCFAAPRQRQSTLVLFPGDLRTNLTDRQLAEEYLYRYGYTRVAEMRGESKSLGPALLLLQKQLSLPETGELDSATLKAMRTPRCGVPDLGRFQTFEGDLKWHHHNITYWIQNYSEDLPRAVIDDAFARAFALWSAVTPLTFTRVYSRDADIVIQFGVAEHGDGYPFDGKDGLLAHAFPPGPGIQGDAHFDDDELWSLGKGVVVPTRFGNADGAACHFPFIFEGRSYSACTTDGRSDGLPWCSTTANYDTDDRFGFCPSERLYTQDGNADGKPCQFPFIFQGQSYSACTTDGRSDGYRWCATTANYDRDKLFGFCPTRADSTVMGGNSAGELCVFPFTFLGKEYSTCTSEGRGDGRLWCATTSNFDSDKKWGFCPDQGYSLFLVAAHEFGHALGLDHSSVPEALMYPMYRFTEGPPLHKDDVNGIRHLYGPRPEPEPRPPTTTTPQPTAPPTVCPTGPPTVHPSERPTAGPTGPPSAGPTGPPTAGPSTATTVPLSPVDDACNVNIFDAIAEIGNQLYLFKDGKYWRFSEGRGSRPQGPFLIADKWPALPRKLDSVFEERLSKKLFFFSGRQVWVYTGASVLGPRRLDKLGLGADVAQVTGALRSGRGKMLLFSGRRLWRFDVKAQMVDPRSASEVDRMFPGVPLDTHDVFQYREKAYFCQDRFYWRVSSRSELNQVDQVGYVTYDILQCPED
# Type: cell-based
# Details: not given
row,SMILES,IC50
1,CN1C[C@H](C(=O)N[C@]2(C)O[C@@]3(O)[C@@H]4CCCN4C(=O)[C@H](Cc4ccccc4)N3C2=O)C=C2c3cccc4[nH]cc(c34)C[C@H]21 [ERGOTAMINE],Not Active
2,CCC1(c2ccccc2)C(=O)NCNC1=O [PRIMIDONE],Not Active
3,CC=CC(=O)N(CC)c1ccccc1C,Not Active
4,O=C1NC(=O)C(c2ccccc2)(c2ccccc2)N1 [PHENYTOIN],Not Active
5,COc1ccc2c(c1)c(CC(=O)OCC(=O)O)c(C)n2C(=O)c1ccc(Cl)cc1 [ACEMETACIN],Not Active

# Molecular target: Protein kinase C alpha type (Homo sapiens, UniProt P17252)
# Type: cell-based
# Details: sf9
row,SMILES,IC50
1,CN1C[C@H](C(=O)N[C@]2(C)O[C@@]3(O)[C@@H]4CCCN4C(=O)[C@H](Cc4ccccc4)N3C2=O)C=C2c3cccc4[nH]cc(c34)C[C@H]21 [ERGOTAMINE],Not Active
2,CCC1(c2ccccc2)C(=O)NCNC1=O [PRIMIDONE],Not Active
3,CC=CC(=O)N(CC)c1ccccc1C,Not Active
4,O=C1NC(=O)C(c2ccccc2)(c2ccccc2)N1 [PHENYTOIN],Not Active
5,COc1ccc2c(c1)c(CC(=O)OCC(=O)O)c(C)n2C(=O)c1ccc(Cl)cc1 [ACEMETACIN],Not Active

# Molecular target: Mitogen-activated protein kinase 14 (Homo sapiens, UniProt Q16539)
# Sequence (Q16539 whole entry): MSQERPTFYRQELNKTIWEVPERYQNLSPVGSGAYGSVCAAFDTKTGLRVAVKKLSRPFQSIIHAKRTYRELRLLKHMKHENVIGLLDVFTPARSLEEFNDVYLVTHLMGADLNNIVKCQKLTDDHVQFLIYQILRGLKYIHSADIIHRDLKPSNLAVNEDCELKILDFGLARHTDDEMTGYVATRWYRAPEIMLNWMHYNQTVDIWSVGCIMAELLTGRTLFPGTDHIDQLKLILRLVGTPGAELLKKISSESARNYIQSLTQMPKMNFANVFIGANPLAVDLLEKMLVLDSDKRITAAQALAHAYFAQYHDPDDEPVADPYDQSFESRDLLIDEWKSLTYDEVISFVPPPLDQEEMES
# Set-up: species or system Escherichia coli
# Details: not given
row,SMILES,IC50
1,CN1C[C@H](C(=O)N[C@]2(C)O[C@@]3(O)[C@@H]4CCCN4C(=O)[C@H](Cc4ccccc4)N3C2=O)C=C2c3cccc4[nH]cc(c34)C[C@H]21 [ERGOTAMINE],Not Active
2,CCC1(c2ccccc2)C(=O)NCNC1=O [PRIMIDONE],Not Active
3,CC=CC(=O)N(CC)c1ccccc1C,Not Active
4,O=C1NC(=O)C(c2ccccc2)(c2ccccc2)N1 [PHENYTOIN],Not Active
5,COc1ccc2c(c1)c(CC(=O)OCC(=O)O)c(C)n2C(=O)c1ccc(Cl)cc1 [ACEMETACIN],Not Active
